We go through 2 compounds from patent US8143409B2, “Crystalline form of rabeprazole sodium” (Dipharma Francis S.R.L., priority 2006, dated 2012).

The nature of data set [1]: Stability of the crystalline hydrate form at room temperature. The data set is classed as physicochemical. To be noted: compared with hydrated crystalline forms alpha and beta.
Data set [2] in a line: Thermodynamic stability by comparing DSC thermograms. To be noted: compared with known hydrate forms α and β, by comparing the respective DSC thermograms. The data set is classed as physicochemical. The procedure:
DSC thermograms were recorded with a Mettler-Toledo differential scansion calorimeter DSC 822, under the following operative conditions: aluminium capsules, 30-400° C. range with increase of 10° C./min, under nitrogen as purging gas (80 ml/min).
In general terms: In DSC, transitions show as peaks or steps in heat flow.

For data set [3] the following is noted: isomorphic forms of EP 1674463; makes handling and storing easy; cited from earlier work.

SMILES strings stand for the structures.

For the compound `COCCCOc1ccnc(C[S+]([O-])c2nc3ccccc3[n-]2)c1C.[Na+]` (stereo not drawn) [Form γ, 2-[[[4-(3-methoxypropoxy)-3-methyl-2-pyridinyl]-methyl]sulfinyl]-1H-benzylimidazole sodium salt], in data set [1], the stability entry is recorded as “more stable at room temperature”. Also, the thermodynamic stability result in data set [2] was “thermodynamically more stable than the known hydrate forms α and β”.

With `COCCCOc1ccnc(C[S+]([O-])c2nc3ccccc3[n-]2)c1C.[Na+]` (stereo not drawn) [alpha], the hygroscopicity entry in data set [3] was “low hygroscopicity”.
